From patent US20240360089A1, “Metabolically Stable HDAC Inhibitors with Trifluoromethylpyruvamide as Metal-Binding Group” (The University of Toledo, priority 2023, published 2024)
Where two headings read alike, the source gives them in different places. Each block holds one molecule with its values, some of them ahead of it.

Columns and labels:
HCT116 cells = assay: Growth inhibition / cell viability assay (methylene blue), HCT116; type: cell-based, human
Method: Cell feasibility was examined using methylene blue staining. Cells were plated at a rate of 5000/well in 96 well plates (n=3) respectively and treated the next day. Three days after treatment, cells were fixed/stained in methylene blue saturated in 50% ethanol for 30 min at room temperature. Excessive water was used to wash off extra dye from the plates.

sixty cell lines [1] = assay: NCI 60 cell five-dose assay; type: cell-based; details: Total Growth Inhibition
sixty cell lines [2] = assay: NCI 60 cell one-dose assay; type: cell-based; details: result in words
PARP1 = assay: Western blot analysis of PARP1 cleavage in HCT116 cells; type: cell-based, human; details: HCT116 cells treated for 24 h; measure of caspase dependent cell death
Method: FIG. 13: Western blot analysis of PARP1 cleavage. HCT116 cells were treated with compounds 83, 84, and 85 at the indicated concentrations for 24 hr. Western blots were probed with an antibody that recognizes a cleaved form of PARP (Cell Signaling Technology 5626) as a measure of caspase dependent cell death.
To determine whether the compounds herein induced apoptosis, the enzyme Poly (ADP ribose) polymerase 1 (PARP1) was analyzed by western blotting. Caspase-dependent proteolytic cleavage of PARP1 is one of the hall marks of apoptosis and antibodies that specifically recognize the cleavage products are available. […] HCT116 cells were treated with compounds 83, 84, and 85 for 24 h.
NCI-H522 cell pellets obtained were lysed using lysis buffer containing 50 mM Tris (pH 7.4), 150 mM NaCl, 0.5% NP-40, (supplemented with 1 μg/ml aprotinin, 2 μg/ml leupeptin, 1 μg/ml pepstatin A, 1 mM DTT, and […]) for 30 minutes on ice and centrifuged at 13×10^3 g for 25 minutes at 4° C. The protein levels of the obtained lysates were normalized using BCA Protein Assay Kit (Pierce) and separated by SDS-polyacrylamide gel electrophoresis (12.5% acrylamide). Transfer to polyvinylidene difluoride membranes (Millipore) was followed by obstruction of membranes with blocking buffer containing 5% (w/v) non-fat dry milk dissolved in PBST [1×PBS containing 0.05% (v/v) Tween 20] for 1 hour at room temperature. Membranes were then incubated with corresponding primary antibodies overnight at 4° C. The membranes were then washed (3×15 min each) with PBST and incubated with secondary antibodies conjugated to horse-radish peroxidase, obtained from Biorad, and used at a dilution of 1:10,000. Bound antibodies were detected using enhanced chemiluminescence (Biorad).

[3] = S9 fraction metabolic stability assay (LC-ESI-MS); type: in vitro ADME; details: human liver S9 fraction
From the text: Previous studies established that trifluoromethyl ketones are metabolically unstable and reduced in vivo to trifluoromethyl alcohols (TFMAs). This metabolic reduction caused a major loss in activity. […] It was believed that in TFPAs, the hydrate form of the ketone is stabilized compared to TFMKs, and is therefore less susceptible to reductive metabolism. […] Metabolic stability studies are primarily conducted using liver microsomal assays, as the predominant cytochrome P450 enzymes present in them are responsible for the metabolism of most xenobiotics in the human body. However, P450 transformations are mostly oxidative in nature, precluding their use to assess the stability of ketone drugs against reductive metabolism. […] Thus, using a liver extract containing both cytosol and microsomal enzymes would be more appropriate for this assay. This was accomplished by using the S9 fraction, which is basically the supernatant obtained from centrifugation of hepatocytes at 9000 g and contains both liver cytosol and microsomal enzymes. LC-ESI-MS was used to monitor the reduction of TFPA 60 over time and it was compared with TFMK 91.
A protocol similar to the one previously employed by others using Human Liver S9 fractions instead of liver microsomes was used for the metabolism studies. The assay was initiated by incubating a mixture of the substrate (0.02 mM), buffer (0.1M), and NADPH (1 mM) at 37° C. for ten minutes, followed by addition of the S9 fraction (0.5 mg) to the mixture and gentle mixing. The total volume of the reaction mixture was maintained at 1 mL. […] The reactions in the aliquots were terminated by adding an equal volume of ethyl acetate, mixing thoroughly, and transferring into micro centrifuge tubes. They were vortexed for 2 minutes and then subjected to centrifugation at 10,000×g for 15 minutes to remove the proteins. The top organic layers were extracted and evaporated under reduced pressure. The organic residues from the aliquots were dissolved in methanol first, then diluted 1:1 with water, and analyzed using LC-ESI-MS. A 450 μL aliquot of compound 60 with concentration of 0.02 mM contains 9 nanomoles, which after evaporation, was dissolved in 500 μL of methanol to give 18 μM in concentration of 60. This was diluted 1:1 with water to give a final concentration of 9 μM, which was used for LC-ESI-MS. Similarly, 200 μL of TFMK 91 at a concentration of 0.02 mM contains 4 nanomoles, which after removing ethyl acetate, and dissolving in 250 μL of methanol gives 16 μM concentration of 91. This was diluted 1:1 with water to give 8 μM final concentration for LC-ESI-MS.
The solvent flow rate was 0.2 mL/min, and the sample injection volume was 20 μL. […]

[4] = Homo sapiens, HCT-116, cap group SAR, HCT116 cell line, maximum concentration of 40 μM, read-out: IC50
[5] = Homo sapiens, HCT-116, zinc-binding group screen, growth inhibition, HCT116 cells, maximum concentration of 100 μM, read-out: HCT116 IC50
[6] = zinc-binding group screen, growth inhibition, HCT116 cells, maximum concentration of 100 μM
[7] = Homo sapiens, HCT-116, read-out: IC50 (μM) HCT116

Compound: O=C(CCCCCCNC(=O)C(O)(O)C(F)(F)F)Nc1ncc(-c2ccc(O)cc2)s1 [Compound 86, N-(5-(4-hydroxyphenyl)thiazol-2-yl)-7-(3,3,3-trifluoro-2,2-dihydroxypropanamido) heptanamide]
melting point: 145 to 150 °C

Compound: CCOc1ccc(-c2cnc(NC(=O)CCCCCCNC(=O)C(O)(O)C(F)(F)F)s2)cc1 [Compound 87, N-(5-(4-ethoxyphenyl)thiazol-2-yl)-7-(3,3,3-trifluoro-2,2-dihydroxypropanamido)heptanamide]
IC50 (HCT116 cells; [4]): 4.05 µM
melting point: 138 to 143 °C

Compound: O=C(CCCCCCNC(=O)c1cc(=O)c(O)co1)Nc1ccccc1
IC50 (HCT116 cells; [5]): > 100 µM

Compound: OC(c1c(F)c(F)c(-n2cc(-c3ccccc3)nn2)c(F)c1F)C(F)(F)F (stereo not shown)
IC50 (HCT116 cells; [5]): > 100 µM

Compound: O=C(CCCCCCNC(=O)C(O)(O)C(F)(F)F)Nc1ccc(-c2ccccc2)cc1 [Compound 69, N-([1,1′-biphenyl]-4-yl)-7-(3,3,3-trifluoro-2,2-dihydroxypropanamido)heptanamide]
TGI (sixty cell lines [1]): 15.14 µM

Compound: O=C(CCCCCCNC(=O)C(O)(O)C(F)(F)F)Nc1nc(-c2ccccc2)c(-c2ccccc2)s1 [Compound 68, N-(4,5-diphenylthiazol-2-yl)-7-(3,3,3-trifluoro-2,2-dihydroxypropanamido)heptanamide]
IC50 (HCT116 cells; [4]): 29.9 µM
melting point: 143 to 148 °C

Compound: O=C(CCCCCNC(=O)c1cc(=O)c(O)co1)Nc1ccccc1
IC50 (HCT116 cells; [5]): > 100 µM

Compound: NC(=O)C(=O)NCCCCC(=O)Nc1ccccc1
IC50 (HCT116 cells; [5]): > 100 µM

Compound: COc1ccccc1NC(=O)CCCCCCNC(=O)C(O)(O)C(F)(F)F [Compound 66, N-(2-methoxyphenyl)-7-(3,3,3-trifluoro-2,2-dihydroxypropanamido)heptanamide]
IC50 (HCT116 cells; [4]): 10.1 µM
melting point: 105 to 110 °C

Compound: CC(=O)C(=O)NCCCCCC(=O)Nc1ccccc1
IC50 (HCT116 cells; [5]): > 100 µM

Compound: O=C(CCCCCCC(O)C(F)(F)F)Nc1ccccc1 (stereo not shown)
IC50 (HCT116 cells; [4]): > 40 µM

Compound: O=C(CCCCCCNC(=O)C(O)(O)C(F)(F)F)Nc1ccc(Br)cc1 [Compound 65, N-(4-bromophenyl)-7-(3,3,3-trifluoro-2,2-dihydroxypropanamido)heptanamide]
TGI (sixty cell lines [1]): 20.89 µM

Compound: O=C(CCCCCCNC(=O)C(O)(O)C(F)(F)F)Nc1ncc(-c2ccc(Br)cc2)s1 [Compound 85, N-(5-(4-bromophenyl)thiazol-2-yl)-7-(3,3,3-trifluoro-2,2-dihydroxypropanamido)heptanamide]
cytostatic / cytotoxic activity in NCI 60 assays (sixty cell lines [2]): cytotoxic effects
TGI (sixty cell lines [1]): 11.4 µM
PARP1 cleavage (cleaved PARP1) (PARP1): Dose-dependent elevation of cleaved PARP1 was detectable

Compound: O=C(CCCCCNC(=O)c1ccc[nH]1)Nc1ccccc1
IC50 (HCT116 cells; [5]): > 100 µM

Compound: O=C(CCCCCCNC(=O)C(O)(O)C(F)(F)F)Nc1ccc(Cl)cc1 [Compound 64, N-(4-chlorophenyl)-7-(3,3,3-trifluoro-2,2-dihydroxypropanamido)heptanamide]
TGI (sixty cell lines [1]): 26.92 µM

Compound: NC(=O)C(=O)NCCCCCCCC(=O)Nc1ccccc1
IC50 (HCT116 cells; [5]): > 100 µM

Compound: C/C(=N\O)C(=O)NCCCCCCC(=O)Nc1ccccc1
IC50 (HCT116 cells; [5]): > 100 µM

Compound: O=C(CCCCCCNC(=O)C(O)C(F)(F)F)Nc1nccs1 (stereo not shown) [drawing 78]
IC50 (HCT116 cells; [4]): > 40 µM

Compound: O=C(CCCCCCNC(=O)C(O)(O)C(F)(F)F)Nc1ccccc1 [Compound 10c, N-phenyl-7-(3,3,3-trifluoro-2,2-dihydroxypropanamido)heptanamide]
IC50 (HCT116 cells; [7]): 9.14 µM
melting point: 123 to 128 °C

Compound: O=C(CCCCCCNC(=O)C(O)(O)C(F)(F)F)Nc1nccs1 [Compound 60, N-(thiazol-2-yl)-7-(3,3,3-trifluoro-2,2-dihydroxypropanamido)heptanamide]
time over which parent M+1 peak did not disappear ([3]; NADPH, 37° C., LC-ESI-MS, aliquots at 1h, 2 hrs): over 2 hours
metabolic reduction to the alcohol ([3]; result in words): no reduction to the alcohol
melting point: 137 to 142 °C

Compound: C/C(=N\O)C(=O)NCCCCC(=O)Nc1ccccc1
IC50 (HCT116 cells; [5]): > 100 µM

Continued, values first:

IC50 (HCT116 cells; [4]): 14.5 µM
melting point: 108 to 113 °C
Compound: O=C(CCCCCCNC(=O)C(O)(O)C(F)(F)F)Nc1ccccc1Br [Compound 75, N-(2-bromophenyl)-7-(3,3,3-trifluoro-2,2-dihydroxypropanamido)heptanamide]

IC50 (HCT116 cells; [5]): > 100 µM
Compound: CC(=O)C(=O)NCCCCCCC(=O)Nc1ccccc1

IC50 (HCT116 cells; [5]): > 100 µM
Compound: CC(=O)C(=O)NCCCCC(=O)Nc1ccccc1

IC50 (HCT116 cells; [5]): > 100 µM
Compound: OC(O)(c1c(F)c(F)c(-n2cc(-c3ccccc3)nn2)c(F)c1F)C(F)(F)F

HCT116 IC50 (HCT116 cells; [6]): inactive
Compound: O=C(CCCCCCCNC(=O)c1cc(=O)c(O)co1)Nc1ccccc1 [Compound 89]

IC50 (HCT116 cells; [5]): > 100 µM
Compound: O=C(CCCCCCCNC(=O)c1cc(=O)c(O)co1)Nc1ccccc1 [drawing 33]

IC50 (HCT116 cells; [5]): > 100 µM
Compound: O=C(CCCCNC(=O)c1cc(=O)c(O)co1)Nc1ccccc1

IC50 (HCT116 cells; [5]): > 100 µM
Compound: C/C(=N\O)C(=O)NCCCCCC(=O)Nc1ccccc1

IC50 (HCT116 cells; [5]): > 100 µM
Compound: NC(=O)C(=O)NCCCCCC(=O)Nc1ccccc1

IC50 (HCT116 cells; [7]): 54.4 µM
IC50 (HCT116 cells; [5]): 54.4 µM
HCT116 IC50 (HCT116 cells; [6]): demonstrated antiproliferative activity
melting point: 103 to 108 °C
Compound: O=C(CCCCCNC(=O)C(O)(O)C(F)(F)F)Nc1ccccc1 [Compound 10b, N-phenyl-6-(3,3,3-trifluoro-2,2-dihydroxypropanamido)hexanamide]

IC50 (HCT116 cells; cap group SAR, HCT116 cell line, maximum concentration of 40 μM): inactive
Compound: O=C(CCCCCCNC(=O)C(O)C(F)(F)F)Nc1nccs1 (stereo not shown) [Compound 92]

IC50 (HCT116 cells; [4]): 6.11 µM
melting point: 120 to 125 °C
Compound: COc1cccc(NC(=O)CCCCCCNC(=O)C(O)(O)C(F)(F)F)c1 [Compound 59, N-(3-methoxyphenyl)-7-(3,3,3-trifluoro-2,2-dihydroxypropanamido)heptanamide]
